# Measurements from ChEMBL document CHEMBL3822440, “Semi-synthesis and antiproliferative evaluation of PEGylated pentacyclic triterpenes” (Eur J Med Chem, 2016).
# pIC50: −log10 of the molar value.
# Assays:
# HT-29 [1] = assay: Cytotoxicity against human HT-29 cells assessed as growth inhibition after 72 hrs by MTT assay; type: functional, cell-based; details: HT-29, 72 h
# HepG2 [2] = assay: Cytotoxicity against human HepG2 cells assessed as growth inhibition after 72 hrs by MTT assay; type: functional, cell-based; details: HepG2, 72 h
# B16-F10 [3] = assay: Potency index, ratio of maslinic acid IC50 to compound IC50 for mouse B16F10 cells; type: functional
# [4] = Cytotoxicity against mouse B16F10 cells assessed as growth inhibition after 72 hrs by MTT assay; type: functional, cell-based; details: B16-F10, 72 h
# HT-29 [5] = assay: Potency index, ratio of maslinic acid IC50 to compound IC50 for human HT-29 cells; type: functional
# HepG2 [6] = assay: Potency index, ratio of maslinic acid IC50 to compound IC50 for human HepG2 cells; type: functional
# HT-29 [7] = assay: Potency index, ratio of oleanolic acid IC50 to compound IC50 for human HT-29 cells; type: functional
# HepG2 [8] = assay: Potency index, ratio of oleanolic acid IC50 to compound IC50 for human HepG2 cells; type: functional
# B16-F10 [9] = assay: Potency index, ratio of oleanolic acid IC50 to compound IC50 for mouse B16F10 cells; type: functional
SMILES,pIC50 (HT-29 [1]),pIC50 (HepG2 [2]),Ratio IC50 (B16-F10 [3]),pIC50 [4],Ratio IC50 (HT-29 [5]),Ratio IC50 (HepG2 [6]),Ratio IC50 (HT-29 [7]),Ratio IC50 (HepG2 [8]),Ratio IC50 (B16-F10 [9])
CC1(C)CC[C@]2(C(=O)O)CC[C@]3(C)C(=CC[C@@H]4[C@@]5(C)CC[C@H](O)C(C)(C)[C@@H]5CC[C@]43C)[C@@H]2C1 [OLEANOLIC_ACID],3.37,3.67,,,,,,,
CC(=O)O[C@@H]1C[C@]2(C)[C@H]3CC=C4[C@@H]5CC(C)(C)CC[C@]5(C(=O)NCCCOCCOCCOCCCN)CC[C@@]4(C)[C@]3(C)CC[C@H]2C(C)(C)[C@H]1OC(C)=O,3.88,3.75,0.3,3.98,0.2,0.6,,,
CC(=O)O[C@H]1CC[C@]2(C)[C@H]3CC=C4[C@@H]5CC(C)(C)CC[C@]5(C(=O)O)CC[C@@]4(C)[C@]3(C)CC[C@H]2C1(C)C [ACETYL OLEANOLIC ACID],3.83,3.98,,,,,2.9,2,1.6
CC1(C)CC[C@]2(C(=O)NCCCOCCOCCOCCCNC(=O)[C@]34CCC(C)(C)C[C@H]3C3=CC[C@@H]5[C@@]6(C)C[C@@H](O)[C@H](O)C(C)(C)[C@@H]6CC[C@@]5(C)[C@]3(C)CC4)CC[C@]3(C)C(=CC[C@@H]4[C@@]5(C)C[C@@H](O)[C@H](O)C(C)(C)[C@@H]5CC[C@]43C)[C@@H]2C1,4.08,4.01,0.3,3.93,0.4,1,,,
CC(=O)O[C@@H]1C[C@]2(C)[C@H]3CC=C4[C@@H]5CC(C)(C)CC[C@]5(C(=O)NCCCOCCOCCOCCCNC(=O)[C@]56CCC(C)(C)C[C@H]5C5=CC[C@@H]7[C@@]8(C)C[C@@H](OC(C)=O)[C@H](OC(C)=O)C(C)(C)[C@@H]8CC[C@@]7(C)[C@]5(C)CC6)CC[C@@]4(C)[C@]3(C)CC[C@H]2C(C)(C)[C@H]1OC(C)=O,4.19,3.95,0.3,3.97,0.5,0.9,,,
CC1(C)CC[C@]2(C(=O)NCCCOCCOCCOCCCNC(=O)[C@]34CCC(C)(C)C[C@H]3C3=CC[C@@H]5[C@@]6(C)CC[C@H](O)C(C)(C)[C@@H]6CC[C@@]5(C)[C@]3(C)CC4)CC[C@]3(C)C(=CC[C@@H]4[C@@]5(C)CC[C@H](O)C(C)(C)[C@@H]5CC[C@]43C)[C@@H]2C1,4.07,4.18,,3.91,,,5,3.2,0.9
COCCOCCOCC(=O)O[C@H]1CC[C@]2(C)[C@H]3CC=C4[C@@H]5CC(C)(C)CC[C@]5(C(=O)OCc5ccccc5)CC[C@@]4(C)[C@]3(C)CC[C@H]2C1(C)C,4.21,4.08,,3.76,,,7,2.5,0.6
"CC(=O)OC1CC[C@]2(C)[C@H]3CC=C4[C@@H]5CC(C)(C)CC[C@]5(C(=O)NCCCOCCOCCOCCCNC(=O)[C@]56CCC(C)(C)C[C@H]5C5=CC[C@@H]7[C@@]8(C)CC[C@H](OC(C)=O)C(C)(C)[C@@H]8CC[C@@]7(C)[C@]5(C)CC6)CC[C@@]4(C)[C@]3(C)CC[C@H]2C1(C)C (single isomer, unassigned)",4.08,4.61,,3.92,,,5.2,8.7,0.9
CC1(C)CC[C@]2(C(=O)OCc3ccccc3)CC[C@]3(C)C(=CC[C@@H]4[C@@]5(C)CC[C@H](O)C(C)(C)[C@@H]5CC[C@]43C)[C@@H]2C1,4.17,4.41,,,,,6.4,5.5,2
CC1(C)CC[C@]2(C(=O)OCc3ccccc3)CC[C@]3(C)C(=CC[C@@H]4[C@@]5(C)C[C@@H](O)[C@H](O)C(C)(C)[C@@H]5CC[C@]43C)[C@@H]2C1 [BENZYL MASLINATE],4.82,4.77,1,4.44,2.1,5.8,,,
CC(=O)O[C@H]1CC[C@]2(C)[C@H]3CC=C4[C@@H]5CC(C)(C)CC[C@]5(C(=O)NCCCOCCOCCOCCCN)CC[C@@]4(C)[C@]3(C)CC[C@H]2C1(C)C,3.86,4.16,,3.70,,,3.1,3.1,0.5
CC1(C)CC[C@]2(C(=O)O)CC[C@]3(C)C(=CC[C@@H]4[C@@]5(C)C[C@@H](O)[C@H](O)C(C)(C)[C@@H]5CC[C@]43C)[C@@H]2C1 [MASLINIC ACID],4.49,4.00,,,,,,,
CC(=O)O[C@@H]1C[C@]2(C)[C@H]3CC=C4[C@@H]5CC(C)(C)CC[C@]5(C(=O)O)CC[C@@]4(C)[C@]3(C)CC[C@H]2C(C)(C)[C@H]1OC(C)=O,4.16,4.30,0.8,,0.5,2,,,
